Laboratory results reported in PubChem BioAssay AID330 (DTP/NCI, 2004).
Inconclusive results and toxic doses are left out. How the source made its calls: active means survival T/C of 150% or more; inactive means T/C below 125% in these data.

Test system: P388 leukemia ip, CD2F1 mice, survival T/C
Experiment: NCI In Vivo Anticancer Drug Screen. Data for tumor model P388 Leukemia (intraperitoneal) in CD2F1 (CDF1) mice
Details: endpoint: median survival time, higher = longer survival
Procedure, shortened: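 Mice carrying the transplanted tumor received test compound or vehicle. Survival was recorded in each group, and the value is the treated-group measurement divided by that of the vehicle-treated control group.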

[1] = dose: 100.0 mg/kg/injection, schedule: Q04DX002 (ip), vehicle: saline with Tween-80
[2] = dose: 200.0 mg/kg/injection, schedule: Q04DX002 (ip), vehicle: saline with Tween-80
[3] = dose: 400.0 mg/kg/injection, schedule: Q04DX002 (ip), vehicle: saline with Tween-80
[4] = dose: 60.0 mg/kg/injection, schedule: Q01DX005 (ip), vehicle: saline
[5] = dose: 120.0 mg/kg/injection, schedule: Q01DX005 (ip), vehicle: saline
[6] = dose: 240.0 mg/kg/injection, schedule: Q01DX005 (ip), vehicle: saline
[7] = dose: 60.0 mg/kg/injection, schedule: Q01DX005 (ip), vehicle: saline with Tween-80
[8] = dose: 25.0 mg/kg/injection, schedule: Q01DX009 (ip), vehicle: saline
[9] = dose: 50.0 mg/kg/injection, schedule: Q01DX005 (ip), vehicle: Klucel (hydroxypropylcellulose) (HPC)
[10] = dose: 100.0 mg/kg/injection, schedule: Q01DX005 (ip), vehicle: Klucel (hydroxypropylcellulose) (HPC)
[11] = dose: 200.0 mg/kg/injection, schedule: Q01DX005 (ip), vehicle: Klucel (hydroxypropylcellulose) (HPC)
[12] = dose: 50.0 mg/kg/injection, schedule: Q01DX005 (ip), vehicle: saline with Tween-80
[13] = dose: 100.0 mg/kg/injection, schedule: Q01DX005 (ip), vehicle: saline with Tween-80
[14] = dose: 200.0 mg/kg/injection, schedule: Q01DX005 (ip), vehicle: saline with Tween-80
[15] = dose: 50.0 mg/kg/injection, schedule: Q01DX009 (ip), vehicle: saline with Tween-80
[16] = dose: 100.0 mg/kg/injection, schedule: Q01DX009 (ip), vehicle: saline with Tween-80
[17] = dose: 200.0 mg/kg/injection, schedule: Q01DX009 (ip), vehicle: saline with Tween-80
[18] = dose: 12.5 mg/kg/injection, schedule: Q01DX009 (ip), vehicle: Klucel (hydroxypropylcellulose) (HPC)
[19] = dose: 25.0 mg/kg/injection, schedule: Q01DX009 (ip), vehicle: Klucel (hydroxypropylcellulose) (HPC)
[20] = dose: 50.0 mg/kg/injection, schedule: Q01DX009 (ip), vehicle: Klucel (hydroxypropylcellulose) (HPC)
[21] = dose: 100.0 mg/kg/injection, schedule: Q01DX009 (ip), vehicle: Klucel (hydroxypropylcellulose) (HPC)
[22] = dose: 400.0 mg/kg/injection, schedule: Q01DX009 (ip), vehicle: saline with Tween-80

Measured: T/C

N#CC(c1ccccc1)C(c1ccccc1)c1cccc2ccccc12 (stereo not given)
inactive: dose: 6.25 mg/kg/injection, schedule: Q01DX009 (ip), vehicle: suspension in saline 98 % of control | dose: 12.5 mg/kg/injection, schedule: Q01DX009 (ip), vehicle: suspension in saline 97 % of control | dose: 25.0 mg/kg/injection, schedule: Q01DX009 (ip), vehicle: suspension in saline 97 % of control | dose: 50.0 mg/kg/injection, schedule: Q01DX009 (ip), vehicle: suspension in saline 97 % of control | [1] 104 % of control | [2] 101 % of control | [3] 107 % of control

CO[C@@H]1[C@H](O)c2ccccc2N1C(C)=O
inactive: [4] 102 % of control | [5] 108 % of control | [6] 101 % of control

COc1ccc2c(c1)c(=O)c(C(=O)O)cn2CCCOc1ccc([N+](=O)[O-])cc1
inactive: dose: 60.0 mg/kg/injection, schedule: Q01DX005 (ip), vehicle: Klucel (hydroxypropylcellulose) (HPC) 88 % of control | dose: 120.0 mg/kg/injection, schedule: Q01DX005 (ip), vehicle: Klucel (hydroxypropylcellulose) (HPC) 93 % of control | dose: 240.0 mg/kg/injection, schedule: Q01DX005 (ip), vehicle: Klucel (hydroxypropylcellulose) (HPC) 89 % of control

CCCCCC(O)(CCCCC)CCCCC
inactive: [4] 101 % of control | [5] 101 % of control | [6] 92 % of control

COC(=O)C1=COC(C)[C@H]2CN3CCc4c([nH]c5cc(OC)ccc45)C3CC12 (stereo not given in full)
inactive: dose: 15.0 mg/kg/injection, schedule: Q01DX005 (ip), vehicle: saline with Tween-80 92 % of control | dose: 30.0 mg/kg/injection, schedule: Q01DX005 (ip), vehicle: saline with Tween-80 91 % of control | [7] 88 % of control

CN(C)CCOCN1COCC1(C)C
inactive: [8] 123 % of control

Fc1ccccc1C(Nc1nc2ccccc2s1)Nc1nc2ccccc2s1
inactive: [9] 109 % of control | [10] 104 % of control | [11] 113 % of control

COC1(C)CNc2ccccc2C(=O)N1 (stereo not given)
inactive: [12] 96 % of control | [13] 98 % of control | [14] 94 % of control

COC(=O)CCCC(NC(=O)c1ccc([N+](=O)[O-])cc1)C(=O)OC (stereo not given)
inactive: [15] 98 % of control | [16] 96 % of control | [17] 96 % of control

CC(=O)OCC1OC(Nc2[nH]c(=O)n(C)c(=O)c2C=O)C(OC(C)=O)C(OC(C)=O)C1OC(C)=O (stereo not given)
inactive: [7] 105 % of control | dose: 120.0 mg/kg/injection, schedule: Q01DX005 (ip), vehicle: saline with Tween-80 109 % of control | dose: 240.0 mg/kg/injection, schedule: Q01DX005 (ip), vehicle: saline with Tween-80 103 % of control

Cc1cc(=O)c2c3c(ccc2[nH]1)Oc1ccccc1O3
inactive: [12] 101 % of control | [13] 101 % of control | [14] 100 % of control

COc1ccccc1C(C)c1cc2c(cc1OC)OCO2 (stereo not given)
inactive: [12] 100 % of control | [13] 101 % of control | [14] 93 % of control

CC#CC#CC#C/C=C\CCC(=O)CC
inactive: [18] 95 % of control | [19] 95 % of control | [20] 95 % of control | [21] 100 % of control

O=[N+]([O-])c1ccc(C(S(=O)(=O)Cc2ccccc2)S(=O)(=O)Cc2ccccc2)cc1
inactive: [20] 93 % of control | [21] 89 % of control | dose: 200.0 mg/kg/injection, schedule: Q01DX009 (ip), vehicle: Klucel (hydroxypropylcellulose) (HPC) 90 % of control

Cc1c(-c2ccccc2)nc(N)n1C
inactive: dose: 5.0 mg/kg/injection, schedule: Q04DX002 (ip), vehicle: saline 100 % of control | dose: 10.0 mg/kg/injection, schedule: Q04DX002 (ip), vehicle: saline 99 % of control | dose: 20.0 mg/kg/injection, schedule: Q04DX002 (ip), vehicle: saline 96 % of control

CN1CN(c2ccc([N+](=O)[O-])cc2)N=N1
inactive: [9] 95 % of control | [10] 97 % of control | [11] 94 % of control

CCc1nc(N)nc(N)c1-c1ccc2c(c1)nnn2CCc1ccccc1
inactive: [9] 99 % of control | [10] 96 % of control

COC(=O)c1c(-c2ccc3c(c2)OCO3)c(C=O)n(C)c1C
inactive: [1] 90 % of control | [2] 87 % of control | [3] 89 % of control

CCN1C(=O)N(CC)C2(CC(=O)c3ccccc3O2)C1=O (stereo not given)
inactive: [4] 111 % of control | [5] 108 % of control | [6] 110 % of control

CCOCCC(N=NC(=S)NNC)c1ccccc1 (stereo not given)
inactive: dose: 100.0 mg/kg/injection, schedule: Q01DX001 (ip), vehicle: saline 100 % of control | dose: 200.0 mg/kg/injection, schedule: Q01DX001 (ip), vehicle: saline 94 % of control | dose: 400.0 mg/kg/injection, schedule: Q01DX001 (ip), vehicle: saline 93 % of control

CCCCCCCCCC[CH2][Sn]([CH2]CCCCCCCCCC)([CH2]CCCCCCCCCC)[CH2]CCCCCCCCCC
inactive: dose: 6.25 mg/kg/injection, schedule: Q01DX009 (ip), vehicle: saline 99 % of control | dose: 12.5 mg/kg/injection, schedule: Q01DX009 (ip), vehicle: saline 105 % of control | [8] 99 % of control

OC1(c2ccccc2C(O)(C(F)(F)F)C(F)(F)F)OC(C(F)(F)F)(C(F)(F)F)c2ccccc21 (stereo not given)
inactive: [18] 101 % of control | [19] 99 % of control | [20] 99 % of control

CCn1c(O)c(N=O)c(=O)n(CC)c1=S
inactive: dose: 50.0 mg/kg/injection, schedule: Q04DX002 (ip), vehicle: saline with Tween-80 105 % of control | [1] 97 % of control

CC(=O)c1cccc2cccc([N+](=O)[O-])c12
inactive: [16] 104 % of control | [17] 90 % of control | [22] 104 % of control

OC(c1ccccc1)(c1ccc(Br)cc1)C1CC1 (stereo not given)
inactive: dose: 25.0 mg/kg/injection, schedule: Q01DX001 (ip), vehicle: Klucel (hydroxypropylcellulose) (HPC) 100 % of control | dose: 50.0 mg/kg/injection, schedule: Q01DX001 (ip), vehicle: Klucel (hydroxypropylcellulose) (HPC) 96 % of control | dose: 100.0 mg/kg/injection, schedule: Q01DX001 (ip), vehicle: Klucel (hydroxypropylcellulose) (HPC) 97 % of control

CCCCC(SC(CC)(C(C)=O)c1ccccc1)C(N)=O (stereo not given)
inactive: [15] 91 % of control | [16] 90 % of control | [17] 88 % of control | [22] 90 % of control

CCC1C(=O)C=C(c2ccccc2)CC1c1ccccc1 (stereo not given)
inactive: [12] 111 % of control | [13] 102 % of control | [14] 93 % of control

O=C(SCc1oc2ccccc2c1O)c1ccccc1
inactive: dose: 12.5 mg/kg/injection, schedule: Q01DX009 (ip), vehicle: saline with Tween-80 103 % of control | dose: 25.0 mg/kg/injection, schedule: Q01DX009 (ip), vehicle: saline with Tween-80 104 % of control | [15] 112 % of control | [16] 94 % of control

CC(=O)NCCc1nc(-c2nc(C(=O)NCCC(C)C)cs2)cs1
inactive: dose: 12.5 mg/kg/injection, schedule: Q01DX009 (ip), vehicle: distilled water + Tween-80 92 % of control | dose: 25.0 mg/kg/injection, schedule: Q01DX009 (ip), vehicle: distilled water + Tween-80 94 % of control | dose: 50.0 mg/kg/injection, schedule: Q01DX009 (ip), vehicle: distilled water + Tween-80 98 % of control | dose: 100.0 mg/kg/injection, schedule: Q01DX009 (ip), vehicle: distilled water + Tween-80 102 % of control | dose: 200.0 mg/kg/injection, schedule: Q01DX009 (ip), vehicle: distilled water + Tween-80 115 % of control

CCOP(=O)(O)OCC.[Y]
inactive: dose: 100.0 mg/kg/injection, schedule: Q04DX003 (ip), vehicle: saline with Tween-80 93 % of control | dose: 200.0 mg/kg/injection, schedule: Q04DX003 (ip), vehicle: saline with Tween-80 100 % of control | dose: 400.0 mg/kg/injection, schedule: Q04DX003 (ip), vehicle: saline with Tween-80 111 % of control
